Consider three compounds from PMC4334727 (Circulation, 2014).

The structures appear in SMILES notation. Where only a bound is given, the exact number is not on record here.

The target in one assay is DUSP3 (Homo sapiens, UniProt P51452). As to the kind of experiment: DUSP3 phosphatase inhibition assay. It counts as biochemical.
Another assay deals with PTP-SL. The assay can be described thus: PTP selectivity profiling. It counts as biochemical.
For the next assay, the target named is T1, DUSP22 (Homo sapiens, UniProt Q9NRW4).
T1 sequence (Q9NRW4 1-184): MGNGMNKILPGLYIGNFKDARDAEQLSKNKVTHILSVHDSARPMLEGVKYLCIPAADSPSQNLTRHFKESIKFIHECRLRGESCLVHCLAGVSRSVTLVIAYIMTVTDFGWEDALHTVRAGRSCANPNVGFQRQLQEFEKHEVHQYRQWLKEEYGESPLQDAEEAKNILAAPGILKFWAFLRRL
As to the kind of experiment: PTP selectivity profiling. It counts as biochemical.

The next assay has as its target T2, HePTP (Homo sapiens, UniProt P35236).
T2 sequence (P35236 1-360): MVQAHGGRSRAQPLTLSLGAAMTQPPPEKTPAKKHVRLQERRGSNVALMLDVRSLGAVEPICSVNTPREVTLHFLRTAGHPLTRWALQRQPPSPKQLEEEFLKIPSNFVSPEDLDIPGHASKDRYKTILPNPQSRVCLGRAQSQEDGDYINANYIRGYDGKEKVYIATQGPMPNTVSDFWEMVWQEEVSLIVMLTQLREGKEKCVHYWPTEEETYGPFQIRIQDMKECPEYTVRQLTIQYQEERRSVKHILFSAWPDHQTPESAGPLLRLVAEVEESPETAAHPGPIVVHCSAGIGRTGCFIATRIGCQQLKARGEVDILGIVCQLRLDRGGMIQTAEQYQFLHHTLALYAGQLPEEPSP
As to the kind of experiment: PTP selectivity profiling. It counts as biochemical.

A further assay deals with T3, LYP (Homo sapiens, UniProt Q9Y2R2).
T3 sequence (Q9Y2R2 1-807): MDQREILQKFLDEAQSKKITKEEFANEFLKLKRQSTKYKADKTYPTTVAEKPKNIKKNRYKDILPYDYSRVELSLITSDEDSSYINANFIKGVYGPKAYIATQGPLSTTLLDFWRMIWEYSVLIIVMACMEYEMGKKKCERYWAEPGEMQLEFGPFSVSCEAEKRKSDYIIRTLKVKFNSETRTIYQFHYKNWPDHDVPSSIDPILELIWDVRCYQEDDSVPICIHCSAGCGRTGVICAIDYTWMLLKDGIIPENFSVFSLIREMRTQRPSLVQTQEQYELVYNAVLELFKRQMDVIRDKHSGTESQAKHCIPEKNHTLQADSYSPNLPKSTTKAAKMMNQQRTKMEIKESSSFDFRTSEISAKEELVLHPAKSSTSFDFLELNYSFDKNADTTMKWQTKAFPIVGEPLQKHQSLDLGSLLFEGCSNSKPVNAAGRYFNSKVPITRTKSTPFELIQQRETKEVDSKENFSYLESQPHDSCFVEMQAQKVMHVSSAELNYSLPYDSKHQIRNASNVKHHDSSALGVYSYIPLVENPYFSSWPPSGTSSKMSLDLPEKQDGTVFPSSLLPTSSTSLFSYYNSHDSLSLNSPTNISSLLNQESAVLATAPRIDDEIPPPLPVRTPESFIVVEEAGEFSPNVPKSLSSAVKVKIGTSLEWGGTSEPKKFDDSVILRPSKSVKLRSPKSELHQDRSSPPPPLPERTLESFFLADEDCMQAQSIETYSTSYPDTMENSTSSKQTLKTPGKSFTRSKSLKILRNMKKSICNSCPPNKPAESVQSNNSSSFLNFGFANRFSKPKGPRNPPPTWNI
As to the kind of experiment: PTP selectivity profiling. It is filed as biochemical.

In a further assay the target is T4, TCPTP (Homo sapiens, UniProt P17706).
T4 sequence (P17706 1-415): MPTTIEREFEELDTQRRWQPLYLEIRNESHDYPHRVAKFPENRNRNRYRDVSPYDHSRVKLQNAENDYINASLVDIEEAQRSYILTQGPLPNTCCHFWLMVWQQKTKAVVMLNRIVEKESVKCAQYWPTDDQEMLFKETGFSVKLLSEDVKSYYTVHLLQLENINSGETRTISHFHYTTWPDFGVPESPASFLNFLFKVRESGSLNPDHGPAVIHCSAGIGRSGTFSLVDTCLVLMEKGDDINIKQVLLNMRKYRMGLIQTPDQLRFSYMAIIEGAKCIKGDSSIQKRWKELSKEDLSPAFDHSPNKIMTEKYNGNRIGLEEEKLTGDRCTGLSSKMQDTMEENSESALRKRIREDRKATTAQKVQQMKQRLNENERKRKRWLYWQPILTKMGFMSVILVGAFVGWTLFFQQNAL
The assay can be described thus: PTP selectivity profiling. It counts as biochemical.

In the next assay the target is T5, CD45 (Homo sapiens, UniProt P08575).
T5 sequence (P08575 26-1306): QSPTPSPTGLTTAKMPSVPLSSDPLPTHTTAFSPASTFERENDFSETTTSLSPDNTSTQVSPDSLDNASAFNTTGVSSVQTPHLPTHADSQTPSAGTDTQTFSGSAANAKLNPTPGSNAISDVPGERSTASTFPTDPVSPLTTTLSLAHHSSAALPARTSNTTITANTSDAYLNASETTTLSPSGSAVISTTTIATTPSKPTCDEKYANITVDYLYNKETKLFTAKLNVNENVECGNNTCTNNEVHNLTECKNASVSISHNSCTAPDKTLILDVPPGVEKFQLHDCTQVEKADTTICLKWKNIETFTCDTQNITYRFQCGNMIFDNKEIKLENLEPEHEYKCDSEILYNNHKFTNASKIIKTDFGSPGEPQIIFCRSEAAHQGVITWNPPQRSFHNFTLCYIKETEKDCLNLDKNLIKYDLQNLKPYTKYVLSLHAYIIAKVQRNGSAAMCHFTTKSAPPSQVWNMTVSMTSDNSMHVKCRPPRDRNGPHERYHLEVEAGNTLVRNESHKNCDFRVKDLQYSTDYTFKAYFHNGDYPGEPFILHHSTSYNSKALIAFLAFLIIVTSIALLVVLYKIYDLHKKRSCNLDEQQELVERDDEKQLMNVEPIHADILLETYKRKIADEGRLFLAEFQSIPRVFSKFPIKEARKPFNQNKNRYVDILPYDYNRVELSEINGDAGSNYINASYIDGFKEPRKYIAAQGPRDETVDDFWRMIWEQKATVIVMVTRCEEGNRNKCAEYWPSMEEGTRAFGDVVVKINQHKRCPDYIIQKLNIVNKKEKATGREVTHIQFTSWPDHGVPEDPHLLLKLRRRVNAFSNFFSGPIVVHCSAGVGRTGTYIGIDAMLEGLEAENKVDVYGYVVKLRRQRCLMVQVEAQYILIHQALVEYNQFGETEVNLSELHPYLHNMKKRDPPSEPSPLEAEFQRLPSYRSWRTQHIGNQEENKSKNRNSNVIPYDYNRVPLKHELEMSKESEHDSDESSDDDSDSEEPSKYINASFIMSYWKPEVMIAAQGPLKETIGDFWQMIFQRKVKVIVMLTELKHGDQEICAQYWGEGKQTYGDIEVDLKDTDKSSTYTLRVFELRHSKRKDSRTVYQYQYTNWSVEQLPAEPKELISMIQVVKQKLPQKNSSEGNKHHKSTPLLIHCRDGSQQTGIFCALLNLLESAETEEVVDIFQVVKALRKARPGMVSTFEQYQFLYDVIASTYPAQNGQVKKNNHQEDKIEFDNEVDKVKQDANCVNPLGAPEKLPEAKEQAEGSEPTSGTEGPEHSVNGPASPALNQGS
As to the kind of experiment: PTP selectivity profiling. It is filed as biochemical.

The target in another assay is LAR (Homo sapiens, UniProt P10586). The assay can be described thus: PTP selectivity profiling. It is filed as biochemical.
LAR, sequence (P10586 30-1907, species assumed): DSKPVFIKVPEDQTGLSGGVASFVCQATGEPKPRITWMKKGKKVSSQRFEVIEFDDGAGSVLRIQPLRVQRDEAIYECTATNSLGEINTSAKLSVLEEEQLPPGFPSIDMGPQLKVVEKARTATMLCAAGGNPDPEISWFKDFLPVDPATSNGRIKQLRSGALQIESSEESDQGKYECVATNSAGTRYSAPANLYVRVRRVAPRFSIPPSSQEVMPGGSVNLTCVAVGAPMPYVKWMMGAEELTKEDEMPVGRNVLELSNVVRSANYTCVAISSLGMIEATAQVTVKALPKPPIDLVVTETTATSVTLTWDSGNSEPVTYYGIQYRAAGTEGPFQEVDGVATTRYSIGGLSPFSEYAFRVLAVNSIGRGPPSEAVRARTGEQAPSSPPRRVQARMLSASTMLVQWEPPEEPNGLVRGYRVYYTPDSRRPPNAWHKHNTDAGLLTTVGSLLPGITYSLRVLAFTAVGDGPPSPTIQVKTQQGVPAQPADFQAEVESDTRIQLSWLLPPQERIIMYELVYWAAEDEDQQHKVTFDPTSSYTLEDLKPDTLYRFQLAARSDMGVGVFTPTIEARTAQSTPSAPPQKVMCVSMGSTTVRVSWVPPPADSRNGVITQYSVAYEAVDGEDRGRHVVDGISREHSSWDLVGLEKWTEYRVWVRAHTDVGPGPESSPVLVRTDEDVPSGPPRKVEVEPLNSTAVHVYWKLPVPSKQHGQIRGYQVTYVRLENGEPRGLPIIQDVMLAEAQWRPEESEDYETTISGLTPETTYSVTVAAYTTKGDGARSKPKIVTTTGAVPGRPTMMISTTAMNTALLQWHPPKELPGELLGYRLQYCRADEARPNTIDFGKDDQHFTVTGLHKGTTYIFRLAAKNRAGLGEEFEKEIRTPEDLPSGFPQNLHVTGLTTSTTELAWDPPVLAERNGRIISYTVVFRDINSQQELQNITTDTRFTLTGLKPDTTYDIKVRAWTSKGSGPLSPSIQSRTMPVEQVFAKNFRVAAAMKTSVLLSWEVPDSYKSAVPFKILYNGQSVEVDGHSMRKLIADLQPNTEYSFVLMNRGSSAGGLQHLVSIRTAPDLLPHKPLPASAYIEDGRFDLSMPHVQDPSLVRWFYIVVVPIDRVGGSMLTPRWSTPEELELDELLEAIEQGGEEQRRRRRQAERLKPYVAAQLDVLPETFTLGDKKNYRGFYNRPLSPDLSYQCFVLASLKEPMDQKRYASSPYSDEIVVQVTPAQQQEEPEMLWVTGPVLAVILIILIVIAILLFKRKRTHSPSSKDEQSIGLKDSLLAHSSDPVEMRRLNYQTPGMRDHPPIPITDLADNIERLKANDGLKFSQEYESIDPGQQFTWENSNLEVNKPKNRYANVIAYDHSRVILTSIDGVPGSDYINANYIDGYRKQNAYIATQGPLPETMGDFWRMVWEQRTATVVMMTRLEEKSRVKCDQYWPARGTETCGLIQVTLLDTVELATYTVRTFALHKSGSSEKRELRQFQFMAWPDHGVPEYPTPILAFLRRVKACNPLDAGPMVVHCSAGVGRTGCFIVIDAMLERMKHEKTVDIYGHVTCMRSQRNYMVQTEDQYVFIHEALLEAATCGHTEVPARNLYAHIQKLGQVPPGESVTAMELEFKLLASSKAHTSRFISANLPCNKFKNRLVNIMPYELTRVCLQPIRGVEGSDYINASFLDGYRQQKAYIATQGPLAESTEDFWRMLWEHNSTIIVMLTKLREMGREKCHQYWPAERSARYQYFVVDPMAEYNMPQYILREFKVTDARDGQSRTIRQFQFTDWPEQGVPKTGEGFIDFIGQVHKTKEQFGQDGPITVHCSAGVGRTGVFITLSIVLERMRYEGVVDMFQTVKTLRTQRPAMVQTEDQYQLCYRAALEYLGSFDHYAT
For another assay, the target named is T6, STEP (Homo sapiens, UniProt P54829).
T6 sequence (P54829 1-565): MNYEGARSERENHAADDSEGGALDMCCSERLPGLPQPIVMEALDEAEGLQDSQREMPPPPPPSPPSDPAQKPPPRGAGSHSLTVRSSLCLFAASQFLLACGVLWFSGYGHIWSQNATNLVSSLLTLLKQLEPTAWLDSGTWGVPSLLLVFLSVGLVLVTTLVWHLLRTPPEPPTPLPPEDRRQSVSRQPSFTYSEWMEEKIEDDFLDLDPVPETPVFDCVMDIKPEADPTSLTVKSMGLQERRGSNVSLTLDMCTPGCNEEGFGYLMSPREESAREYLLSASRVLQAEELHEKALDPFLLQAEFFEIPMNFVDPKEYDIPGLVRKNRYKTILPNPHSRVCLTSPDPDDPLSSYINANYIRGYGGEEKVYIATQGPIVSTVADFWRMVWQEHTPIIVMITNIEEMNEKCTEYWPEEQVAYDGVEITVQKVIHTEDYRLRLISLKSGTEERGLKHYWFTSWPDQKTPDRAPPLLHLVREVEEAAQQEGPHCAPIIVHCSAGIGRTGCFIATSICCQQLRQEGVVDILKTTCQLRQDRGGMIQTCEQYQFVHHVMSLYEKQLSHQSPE
As to the kind of experiment: PTP selectivity profiling. It counts as biochemical.

The target of the next assay is T7, PTP1B (Homo sapiens, UniProt P18031).
T7 sequence (P18031 1-435): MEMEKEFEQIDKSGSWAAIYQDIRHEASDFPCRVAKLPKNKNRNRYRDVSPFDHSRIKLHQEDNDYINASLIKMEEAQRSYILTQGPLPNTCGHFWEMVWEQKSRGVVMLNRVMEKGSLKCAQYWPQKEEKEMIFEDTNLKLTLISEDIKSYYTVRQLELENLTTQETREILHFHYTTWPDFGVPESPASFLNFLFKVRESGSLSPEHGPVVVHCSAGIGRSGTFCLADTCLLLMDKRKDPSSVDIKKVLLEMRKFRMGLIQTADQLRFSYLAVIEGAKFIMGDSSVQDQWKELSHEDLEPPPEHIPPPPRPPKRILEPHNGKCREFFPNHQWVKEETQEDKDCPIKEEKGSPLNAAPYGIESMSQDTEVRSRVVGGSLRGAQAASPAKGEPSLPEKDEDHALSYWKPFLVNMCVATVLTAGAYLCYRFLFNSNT
As to the kind of experiment: PTP selectivity profiling. It is filed as biochemical.

In another assay the target is T8, DUSP6 (Homo sapiens, UniProt Q16828).
T8 sequence (Q16828 1-381): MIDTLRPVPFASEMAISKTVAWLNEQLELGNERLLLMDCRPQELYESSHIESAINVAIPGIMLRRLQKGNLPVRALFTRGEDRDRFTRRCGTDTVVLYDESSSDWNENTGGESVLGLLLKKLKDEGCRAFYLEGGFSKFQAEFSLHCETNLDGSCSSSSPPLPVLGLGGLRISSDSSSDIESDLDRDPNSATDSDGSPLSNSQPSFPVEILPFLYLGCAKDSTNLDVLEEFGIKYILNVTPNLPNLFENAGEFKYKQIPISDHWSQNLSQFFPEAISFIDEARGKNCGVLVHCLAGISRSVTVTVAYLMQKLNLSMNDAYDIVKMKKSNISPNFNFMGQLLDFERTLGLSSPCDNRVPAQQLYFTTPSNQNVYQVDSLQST
As to the kind of experiment: PTP selectivity profiling. It is filed as biochemical.

In a further assay the test system is human platelets. It is filed as cell-based.
Assay [1] deals with DUSP3-deficient platelets. As to the kind of experiment: Platelet aggregation in washed platelets from Dusp3-KO mice. The following applies: Dusp3-KO mouse washed platelets, 3.7 μM, pre-incubated 30 min.
The mark [2] stands for this setting: DUSP3, HTS hits, text (Supplemental Table S2).

DUSP3, sequence (P51452 whole entry): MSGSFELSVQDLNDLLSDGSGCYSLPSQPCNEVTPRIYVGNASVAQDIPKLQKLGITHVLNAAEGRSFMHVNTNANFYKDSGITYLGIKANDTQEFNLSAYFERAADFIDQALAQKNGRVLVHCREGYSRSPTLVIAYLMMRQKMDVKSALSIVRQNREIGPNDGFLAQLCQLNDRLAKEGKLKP

In the case of `COc1ccc(-c2nnc(Nc3nc4c(OC)cccc4s3)o2)cc1` [MLS-0049585], the IC50 against DUSP3 (setting [2]) came to 2.68 µM.

In turn, `COc1cc(C(=S)N2CCCCC2)ccc1O` [MLS-0103602] gave an IC50 against DUSP3 (setting [2]) of 0.37 µM.

For the compound `COc1ccc(-c2nnc(Nc3nc4c(F)cccc4s3)o2)cc1` [MLS-0437605], the IC50 on DUSP3 (DUSP3) was determined as 3.7 µM; in the assay on PTP-SL, 13 µM; against DUSP22 (DUSP22), 26 µM; against HePTP, 38 µM; at LYP it was 49 µM; against TCPTP it was 55 µM. Besides, the IC50 against CD45, at LAR, at STEP, on PTP1B and against DUSP6 was greater than 100 µM each time. Further, at DUSP22 (DUSP3 over DUSP22), the “selectivity for DUSP3 over DUSP22” value is recorded as 7 fold. The “Tyrosine phosphorylation of immunoprecipitated Syk and PLCγ2” value with human platelets (human platelets, CRP- or rhodocytin-activated) was “reduced”. Further, the “Global tyrosine phosphorylation (pY) of ~70-kDa band” value in the assay with human platelets (total lysates of human platelets after stimulation with CRP or rhodocytin) is listed as “caused a decrease in pY”. In addition, the “Effect on aggregation of DUSP3-deficient platelets” value in assay [1] was “only minimally affected aggregation”.

By IC50 is commonly meant the concentration needed to halve the response being measured.
